A short description of the assay: antimicrobial activity of the recombinant antimicrobial peptide. Format: cell-based. The settings on record: recombinant histonin II purified from E. coli BL21(DE3)/pmIF3H, compared with naturally-occurring antimicrobial peptide.

As to “RAGLQFPVGRLLRRLLRRLLR (histonin II peptide) [recombinant antimicrobial peptide]”, the antimicrobial activity entry was “substantially the same antimicrobial activity as a naturally-occurring antimicrobial peptide”.
